ChEMBL document CHEMBL6078677, “Discovery and optimization of tetrahydroacridine derivatives as a novel class of antibiotics against multidrug-resistant Gram-positive pathogens by targeting type I signal peptidase and disrupting bacterial membrane” (Eur J Med Chem, 2025)
Converted amounts (≈) assume the structure as drawn. Numbered stars: 1 amine (or outer) side, 2 acyl side, 3 side chain; on linkers, the order of the positions; unused ones are H or OH. Bridge positions count the residues as written; N and C are the ends. Square brackets hold non-standard residues; d marks the D form. Side chains are listed from the residue outwards. Peptide text beside a SMILES is read from it. * marks the point of attachment. X1 = C[C@@H](O)[C@H](CN([C@@H](CCN)C(=O)[*:2])[*:1])N[*:3]; Octanoyl(6-Me) = CCC(C)CCCCC(=O)*; Dab = NCC[C@H](N)C(=O)O

Key:
Salmonella enteritidis = test: Antimicrobial activity against Salmonella enteritis S1 assessed as inhibition of visible growth of bacteria incubated for 20 hrs by broth microdilution method; assay type: functional, Salmonella enterica subsp. enterica serovar Enteritidis; settings: Salmonella enterica
Klebsiella pneumoniae = test: Antimicrobial activity against Klebsiella pneumoniae 9-1 assessed as inhibition of visible growth of bacteria incubated for 20 hrs by broth microdilution method; assay type: functional
Streptococcus suis [1] = test: microbe, parasite or virus in culture; assay type: functional; settings: SH0918, time 20 hrs
Description: Antimicrobial activity against Streptococcus suis SH0918 harboring erythromycin-resistance rRNA methylase B, tetracycline efflux protein O and oxazolidinone phenicol transferable resistance gene assessed as inhibition of visible growth of bacteria incubated for 20 hrs by broth microdilution method

Streptococcus pyogenes = test: Antimicrobial activity against Streptococcus pyogenes DL02 harboring erythromycin-resistance rRNA methylase B assessed as inhibition of visible growth of bacteria incubated for 20 hrs by broth microdilution method; assay type: functional
Enterococcus faecium [2] = test: Antimicrobial activity against Enterococcus faecium HFY01 assessed as inhibition of visible growth of bacteria incubated for 20 hrs by broth microdilution method; assay type: functional
Acinetobacter baumannii [3] = test: Antimicrobial activity against Acinetobacter baumannii 7979 assessed as inhibition of visible growth of bacteria incubated for 20 hrs by broth microdilution method; assay type: functional
Staphylococcus aureus [4] = test: Antimicrobial activity against Staphylococcus aureus YZSA-24 harboring erythromycin resistance rRNA methylase C and methicillin resistance gene resistance locus assessed as inhibition of visible growth of bacteria incubated for 20 hrs by broth microdilution method; assay type: functional
Staphylococcus aureus [5] = test: Antimicrobial activity against Staphylococcus aureus YZSA-21 harboring erythromycin resistance rRNA methylase C assessed as inhibition of visible growth of bacteria incubated for 20 hrs by broth microdilution method; assay type: functional
Enterococcus faecium [6] = test: Antimicrobial activity against Enterococcus faecium MC38 harboring erythromycin resistance rRNA methylase B and oxazolidinone-phenicol transferable resistance gene assessed as inhibition of visible growth of bacteria incubated for 20 hrs by broth microdilution method; assay type: functional
Streptococcus agalactiae = test: Antimicrobial activity against Streptococcus agalactiae DL03 harboring erythromycin-resistance rRNA methylase B assessed as inhibition of visible growth of bacteria incubated for 20 hrs by broth microdilution method; assay type: functional
Pseudomonas aeruginosa [7] = test: Antimicrobial activity against Pseudomonas aeruginosa PA01 assessed as inhibition of visible growth of bacteria incubated for 20 hrs by broth microdilution method; assay type: functional
Streptococcus suis [8] = test: Antimicrobial activity against Streptococcus suis P1/7 assessed as inhibition of visible growth of bacteria incubated for 20 hrs by broth microdilution method; assay type: functional
Enterococcus faecalis [9] = test: Antimicrobial activity against Enterococcus faecalis J2 harboring erythromycin-resistance rRNA methylase B and oxazolidinone phenicol transferable resistance gene assessed as inhibition of visible growth of bacteria incubated for 20 hrs by broth microdilution method; assay type: functional
Enterococcus faecium [10] = test: Antimicrobial activity against Enterococcus faecium QF31 harboring erythromycin resistance rRNA methylase B and chloramphenicol-florfenicol resistance methylase assessed as inhibition of visible growth of bacteria incubated for 20 hrs by broth microdilution method; assay type: functional
Enterococcus faecalis [11] = test: Antimicrobial activity against Enterococcus faecalis ES01 harboring erythromycin-resistance rRNA methylase B and vanB-type vancomycin-resistance locus assessed as inhibition of visible growth of bacteria incubated for 20 hrs by broth microdilution method; assay type: functional
Staphylococcus aureus [12] = test: Antimicrobial activity against Staphylococcus aureus YZSA-15 harboring erythromycin resistance rRNA methylase C and vancomycin resistance locus assessed as inhibition of visible growth of bacteria incubated for 20 hrs by broth microdilution method; assay type: functional
Acinetobacter baumannii [13] = test: Antimicrobial activity against Acinetobacter baumannii AB11 assessed as inhibition of visible growth of bacteria incubated for 20 hrs by broth microdilution method; assay type: functional
Staphylococcus aureus [14] = test: microbe, parasite or virus in culture; assay type: functional; settings: M92-1, time 20 hrs
Description: Antimicrobial activity against Staphylococcus aureus M92-1 harboring erythromycin resistance rRNA methylase B, tetracycline efflux protein L and oxazolidinone-phenicol transferable resistance gene assessed as inhibition of visible growth of bacteria incubated for 20 hrs by broth microdilution method

Enterococcus faecalis [15] = test: Antimicrobial activity against Enterococcus faecalis JH2-2 assessed as inhibition of visible growth of bacteria incubated for 20 hrs by broth microdilution method; assay type: functional
Enterococcus faecalis [16] = test: microbe, parasite or virus in culture; assay type: functional; settings: SF23-1, time 20 hrs
Description: Antimicrobial activity against Enterococcus faecalis SF23-1 harboring erythromycin-resistance rRNA methylase B, tetracycline efflux protein L and chloramphenicol-florfenicol resistance methylase assessed as inhibition of visible growth of bacteria incubated for 20 hrs by broth microdilution method

Pseudomonas aeruginosa [17] = test: Antimicrobial activity against Pseudomonas aeruginosa PA14 assessed as inhibition of visible growth of bacteria incubated for 20 hrs by broth microdilution method; assay type: functional
Staphylococcus aureus [18] = test: microbe, parasite or virus in culture; assay type: functional; settings: M147-2, time 20 hrs
Description: Antimicrobial activity against Staphylococcus aureus M147-2 harboring erythromycin resistance rRNA methylase B, tetracycline efflux protein L and chloramphenicol-florfenicol resistance methylase assessed as inhibition of visible growth of bacteria incubated for 20 hrs by broth microdilution method

Staphylococcus aureus [19] = test: Antimicrobial activity against Staphylococcus aureus ATCC 29213 assessed as inhibition of visible growth of bacteria incubated for 20 hrs by broth microdilution method; assay type: functional
Escherichia coli = test: Antimicrobial activity against Escherichia coli ATCC 25922 assessed as inhibition of visible growth of bacteria incubated for 20 hrs by broth microdilution method; assay type: functional
Signal peptidase I = Signal peptidase I (Escherichia coli K-12, UniProt P00803); test: Binding affinity to recombinant 6His-tagged Escherichia coli LepB (77 to 324 residues) extracted from Escherichia coli BL21 (DE3) cells assessed as dissociation constant by MST analysis
Chain of Signal peptidase I (P00803 whole entry, the tested form may be a part): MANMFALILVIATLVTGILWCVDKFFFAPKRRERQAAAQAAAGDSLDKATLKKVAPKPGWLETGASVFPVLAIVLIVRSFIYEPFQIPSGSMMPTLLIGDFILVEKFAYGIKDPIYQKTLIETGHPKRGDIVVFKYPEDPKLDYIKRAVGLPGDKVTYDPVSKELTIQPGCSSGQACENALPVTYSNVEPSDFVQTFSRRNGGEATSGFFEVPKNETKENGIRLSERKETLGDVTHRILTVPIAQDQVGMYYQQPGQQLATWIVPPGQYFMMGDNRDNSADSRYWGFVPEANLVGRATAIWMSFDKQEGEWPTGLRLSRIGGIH

Row | Structure (SMILES) | MIC (Salmonella enteritidis) [µg/mL] | MIC (Klebsiella pneumoniae) [µg/mL] | MIC (Streptococcus suis [1]) [µg/mL] | MIC (Streptococcus pyogenes) [µg/mL] | MIC (Enterococcus faecium [2]) [µg/mL] | MIC (Acinetobacter baumannii [3]) [µg/mL] | MIC (Staphylococcus aureus [4]) [µg/mL] | MIC (Staphylococcus aureus [5]) [µg/mL] | MIC (Enterococcus faecium [6]) [µg/mL] | MIC (Streptococcus agalactiae) [µg/mL] | MIC (Pseudomonas aeruginosa [7]) [µg/mL] | MIC (Streptococcus suis [8]) [µg/mL] | MIC (Enterococcus faecalis [9]) [µg/mL] | MIC (Enterococcus faecium [10]) [µg/mL] | MIC (Enterococcus faecalis [11]) [µg/mL] | MIC (Staphylococcus aureus [12]) [µg/mL] | MIC (Acinetobacter baumannii [13]) [µg/mL] | MIC (Enterococcus faecalis [16]) [µg/mL] | MIC (Pseudomonas aeruginosa [17]) [µg/mL] | MIC (Staphylococcus aureus [19]) [µg/mL] | other results
1 | CNC(C)[C@@H]1CC[C@@H](N)[C@@H](O[C@H]2[C@H](O)[C@@H](O[C@H]3OC[C@](C)(O)[C@H](NC)[C@H]3O)[C@H](N)C[C@@H]2N)O1.CN[C@@H]1[C@@H](O)[C@@H](O[C@@H]2[C@@H](O)[C@H](O[C@H]3O[C@H](C(C)N)CC[C@H]3N)[C@@H](N)C[C@H]2N)OC[C@]1(C)O.CN[C@@H]1[C@@H](O)[C@@H](O[C@@H]2[C@@H](O)[C@H](O[C@H]3O[C@H](CN)CC[C@H]3N)[C@@H](N)C[C@H]2N)OC[C@]1(C)O (stereo partly specified) | 0.25 | 0.5 | > 32 | 1 | < 0.06 | > 32 | 0.5 | 0.5 | > 32 | 16 | 0.125 | 4 | 8 | > 32 | > 32 | 0.5 | < 0.06 | 8 | < 0.06 | 1 | MIC (Staphylococcus aureus [14]): > 32 µg/mL; MIC (Enterococcus faecalis [15]): 4 µg/mL; MIC (Staphylococcus aureus [18]): 0.5 µg/mL
2 | CC(C)CCCCC(=O)N[C@@H](CCN)C(=O)N[C@@H](CN[C@@H](CCN)C(=O)N[C@H]1CCNC(=O)[C@H]([C@@H](C)O)NC(=O)[C@H](CCN)NC(=O)[C@H](CCN)NC(=O)[C@H](CC(C)C)NC(=O)[C@@H](CC(C)C)NC(=O)[C@H](CCN)NC1=O)[C@@H](C)O.CCC(C)CCCCC(=O)N[C@@H](CCN)C(=O)N[C@@H](CN[C@@H](CCN)C(=O)N[C@H]1CCNC(=O)[C@H]([C@@H](C)O)NC(=O)[C@H](CCN)NC(=O)[C@H](CCN)NC(=O)[C@H](CC(C)C)NC(=O)[C@@H](CC(C)C)NC(=O)[C@H](CCN)NC1=O)[C@@H](C)O (stereo partly drawn) (H-[X1]([Dab-Octanoyl(6-Me)])[Dab][Dab][dL]L[Dab][Dab]T; lactam 2-C) | 0.5 | 0.5 |  |  |  | < 0.06 |  |  |  |  | 0.125 |  |  |  |  |  | 8 |  | < 0.06 |  | MIC (Escherichia coli): 1 µg/mL
3 | CC1C/C(=C\c2ccc(-c3cccc(Cl)c3)o2)c2nc3ccccc3c(C(=O)O)c2C1 (racemic) |  |  |  |  |  |  |  |  |  |  |  | 32 (≈ 74.4 µM) |  | 16 (≈ 37.2 µM) |  |  |  | > 64 |  | 8 (≈ 18.6 µM) | Kd (Signal peptidase I): 42.1 µM
4 | C[C@H]1[C@H](NC(=O)/C(=N\OC(C)(C)C(=O)O)c2csc(N)n2)C(=O)N1S(=O)(=O)O [AZTREONAM] | 2 (≈ 4.59 µM) | 2 (≈ 4.59 µM) |  |  |  | > 32 |  |  |  |  | 2 (≈ 4.59 µM) |  |  |  |  |  | > 32 |  | 4 (≈ 9.19 µM) |  | MIC (Escherichia coli): 0.25 µg/mL (≈ 0.574 µM)
5 | CO[C@@]1(NC(=O)Cc2cccs2)C(=O)N2C(C(=O)O)=C(COC(N)=O)CS[C@@H]21 [CEFOXITIN] | 32 (≈ 74.9 µM) | > 32 | 8 (≈ 18.7 µM) | 1 (≈ 2.34 µM) | 8 (≈ 18.7 µM) | > 32 | 32 (≈ 74.9 µM) | 4 (≈ 9.36 µM) | > 32 | 16 (≈ 37.4 µM) | > 32 | 1 (≈ 2.34 µM) | > 32 | > 32 | > 32 | 2 (≈ 4.68 µM) | 16 (≈ 37.4 µM) | > 32 | > 32 | 1 (≈ 2.34 µM) | MIC (Staphylococcus aureus [14]): 4 µg/mL (≈ 9.36 µM); MIC (Escherichia coli): 0.25 µg/mL (≈ 0.585 µM); MIC (Enterococcus faecalis [15]): > 32 µg/mL; MIC (Staphylococcus aureus [18]): 4 µg/mL (≈ 9.36 µM)
6 | O=C(O)c1cn(C2CC2)c2cc(N3CCNCC3)c(F)cc2c1=O [CIPROFLOXACIN] |  |  | 16 (≈ 48.3 µM) | 1 (≈ 3.02 µM) | 1 (≈ 3.02 µM) |  | 4 (≈ 12.1 µM) | 0.5 (≈ 1.51 µM) | 8 (≈ 24.1 µM) | 16 (≈ 48.3 µM) |  | 0.125 (≈ 0.377 µM) | 0.5 (≈ 1.51 µM) | 2 (≈ 6.04 µM) | > 32 | 0.25 (≈ 0.754 µM) |  | 16 (≈ 48.3 µM) |  | 1 (≈ 3.02 µM) | MIC (Enterococcus faecalis [15]): 0.5 µg/mL (≈ 1.51 µM)
